According to patent publication US10407409B2, “6-(5-hydroxy-1H-pyrazol-1-yl)nicotinamide inhibitors of PHD” (Takeda Pharmaceutical Company Limited, priority 2013, dated 2019):

What was measured:
[1] = target: PHD2 enzyme (residues 181-417) (Homo sapiens (Human), UniProt Q9GZT9); test: Inhibition of PHD enzyme (LC/MS peptide hydroxylation assay); format: biochemical; conditions: PHD2 (residues 181-417) 5 nM, 60 min pre-incubation; -log(IC50), IC50 molar
Method in brief: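 PHD2 (5 nM final) preincubated with inhibitor 60 min at RT in 50 mM HEPES, 50 mM KCl, 0.5 mM TCEP, 2 uM FeCl2, 0.1 mg/ml BSA, pH 7.3. Reaction started with biotin-peptide (1 uM), 2-oxoglutarate (2 uM), ascorbate (1 mM), quenched at 60 min; hydroxylated product by LC/MS, reported as pIC50.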

[2] = test system: HIF1a protein in H9c2 rat cardiomyocytes; test: Cell-based HIF-alpha stabilization assay (inhibition of PHD in cells); conditions: Rattus norvegicus, H9c2, 24 h, 24 hrs compound incubation, HIF1a protein by ELISA, read-out: Inhibition of PHD in cells (pEC50) (converted)
Method in brief: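 Rat H9c2 cardiomyocytes, cultured 24 h, were treated 24 h with an 11-point serial dilution of compound. HIF1a in whole-cell lysates was quantified by ELISA as % of the maximal desferrioxamine response. EC50 came from curve fitting; EC50pos is the concentration reaching 50% of the desferrioxamine maximum.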

Chain of PHD2 enzyme (residues 181-417) (Q9GZT9 181-417): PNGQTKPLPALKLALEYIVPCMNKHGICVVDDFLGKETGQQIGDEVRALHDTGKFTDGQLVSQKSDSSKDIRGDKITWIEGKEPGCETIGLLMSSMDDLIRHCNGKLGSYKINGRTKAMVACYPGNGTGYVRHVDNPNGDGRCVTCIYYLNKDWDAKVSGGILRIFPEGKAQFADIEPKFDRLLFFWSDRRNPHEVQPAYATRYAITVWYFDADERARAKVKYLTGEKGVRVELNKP

| Structure (SMILES) | PHD Inhibition (pIC50) [1] | EC50 [2] |
| --- | --- | --- |
| Cc1cc(C#N)ccc1-c1cnn(-c2ccc(C(=O)N3CCN(C(C)(C)C)CC3)cn2)c1O [Example 291, 4-(1-(5-(4-(tert-butyl)piperazine-1-carbonyl)pyridin-2-yl)-5-hydroxy-1H-pyrazol-4-yl)-3-methylbenzonitrile] | 8.15 | 977 nM |
| N#Cc1ccc(-c2cnn(-c3ccc(C(=O)NC4CCNCC4)cn3)c2O)cc1 [Example 72] | 7.8 | 2880 nM |
| Cc1cc(C#N)c(F)cc1-c1cnn(-c2ccc(C(=O)N3CCOCC3)cn2)c1O [Example 398, 2-fluoro-4-(5-hydroxy-1-(5-(morpholine-4-carbonyl)pyridin-2-yl)-1H-pyrazol-4-yl)-5-methylbenzonitrile] | 8.65 | 1950 nM |
| Cc1cc(C#N)ccc1-c1cnn(-c2ccc(C(=O)NCCCn3cccn3)cn2)c1O [Example 141] | 8.3 | 407 nM |
| O=C(NCC1CCOCC1)c1ccc(-n2ncc(-n3ccccc3=O)c2O)nc1 [Example 192, 6-(5-hydroxy-4-(2-oxopyridin-1(2H)-yl)-1H-pyrazol-1-yl)-N-((tetrahydro-2H-pyran-4-yl)methyl)nicotinamide] | 6.84 | 50100 nM |
| CCN1CCN(C(=O)c2ccc(-n3ncc(-c4ccc(C#N)cc4C)c3O)nc2)C[C@H]1C [Example 388, (R)-4-(1-(5-(4-ethyl-3-methylpiperazine-1-carbonyl)pyridin-2-yl)-5-hydroxy-1H-pyrazol-4-yl)-3-methylbenzonitrile] | 8.25 | 513 nM |
| COCC[C@@H](C)NC(=O)c1ccc(-n2ncc(-c3ccc(C#N)cc3)c2O)nc1 [Example 357, (R)-6-(4-(4-cyanophenyl)-5-hydroxy-1H-pyrazol-1-yl)-N-(4-methoxybutan-2-yl)nicotinamide] | 8.46 | 2400 nM |
| Cc1cc(C#N)ccc1-c1cnn(-c2ccc(C(=O)N(C)C3CC3)cn2)c1O [Example 246, 6-(4-(4-cyano-2-methylphenyl)-5-hydroxy-1H-pyrazol-1-yl)-N-cyclopropyl-N-methylnicotinamide] | 7.8 | 407 nM |
| COc1cc(C#N)ccc1-c1cnn(-c2ccc(C(=O)NCC3CCOCC3)cn2)c1O [Example 194, 6-(4-(4-cyano-2-methoxyphenyl)-5-hydroxy-1H-pyrazol-1-yl)-N-((tetrahydro-2H-pyran-4-yl)methyl)nicotinamide] | 7.3 | 513 nM |
| N#Cc1ccc(-c2cnn(-c3ccc(C(=O)NC4CC5(COC5)C4)cn3)c2O)cc1 [Example 237, 6-(4-(4-cyanophenyl)-5-hydroxy-1H-pyrazol-1-yl)-N-(2-oxaspiro[3.3]heptan-6-yl)nicotinamide] | 7.54 | 447 nM |

Continued, in another order:

| PHD Inhibition (pIC50) [1] | Structure (SMILES) | EC50 [2] |
| --- | --- | --- |
| 8.51 | Cc1cc(C#N)ccc1-c1cnn(-c2ccc(C(=O)N3CCN(CC(F)F)CC3)cn2)c1O [Example 311, 4-(1-(5-(4-(2,2-difluoroethyl)piperazine-1-carbonyl)pyridin-2-yl)-5-hydroxy-1H-pyrazol-4-yl)-3-methylbenzonitrile] | 1480 nM |
| 6.89 | Cc1cc(-n2ncc(-c3ccc(C#N)cc3)c2O)ncc1C(=O)N[C@H]1CCOC1 [Example 277, (S)-6-(4-(4-cyanophenyl)-5-hydroxy-1H-pyrazol-1-yl)-4-methyl-N-(tetrahydrofuran-3-yl)nicotinamide] | 7080 nM |
| 7.1 | COCCCNC(=O)c1ccc(-n2ncc(-c3ccnc(OC)c3)c2O)nc1 [Example 203, 6-(5-hydroxy-4-(2-methoxypyridin-4-yl)-1H-pyrazol-1-yl)-N-(3-methoxypropyl)nicotinamide] | 603 nM |
| 7.25 | Cc1cc(C#N)ccc1-c1cnn(-c2ccc(C(=O)NCCC3CCOCC3)cn2)c1O [Example 64, 6-(4-(4-cyano-2-methylphenyl)-5-hydroxy-1H-pyrazol-1-yl)-N-(2-(tetrahydro-2H-pyran-4-yl)ethyl)nicotinamide] | 158 nM |
| 8.28 | Cc1cc(C#N)c(F)cc1-c1cnn(-c2ccc(C(=O)N3CCN(C4CC4)CC3)cn2)c1O [Example 308, 4-(1-(5-(4-cyclopropylpiperazine-1-carbonyl)pyridin-2-yl)-5-hydroxy-1H-pyrazol-4-yl)-2-fluoro-5-methylbenzonitrile] | 6610 nM |
| 7.08 | N#Cc1ccc(-c2cnn(-c3ccc(C(=O)NC4CCN(C5CC5)CC4)cn3)c2O)cc1 [Example 93, 6-(4-(4-cyanophenyl)-5-hydroxy-1H-pyrazol-1-yl)-N-(1-cyclopropylpiperidin-4-yl)nicotinamide] | 871 nM |
| 7.18 | C[C@H](NC(=O)c1ccc(-n2ncc(-c3ccc(C#N)cc3)c2O)nc1)C(F)(F)F [Example 171, (S)-6-(4-(4-cyanophenyl)-5-hydroxy-1H-pyrazol-1-yl)-N-(1,1,1-trifluoropropan-2-yl)nicotinamide] | 1450 nM |
| 8.2 | COC(C)CCNC(=O)c1ccc(-n2ncc(-c3ccc(C#N)cc3C)c2O)nc1 (stereo not drawn) [Example 181, 6-(4-(4-cyano-2-methylphenyl)-5-hydroxy-1H-pyrazol-1-yl)-N-(3-methoxybutyl)nicotinamide] | 324 nM |
| 8.05 | Cc1cc(C#N)ccc1-c1cnn(-c2ccc(C(=O)N3CCC4(CN(C)C4)C3)cn2)c1O [Example 293, 4-(5-hydroxy-1-(5-(2-methyl-2,6-diazaspiro[3.4]octane-6-carbonyl)pyridin-2-yl)-1H-pyrazol-4-yl)-3-methylbenzonitrile] | 324 nM |
| 7.42 | N#Cc1ccc(-c2cnn(-c3ccc(C(=O)NCCCc4nccs4)cn3)c2O)cc1 [Example 116, 6-(4-(4-cyanophenyl)-5-hydroxy-1H-pyrazol-1-yl)-N-(3-(thiazol-2-yl)propyl)nicotinamide] | 741 nM |
| 8.26 | Cc1cc(C#N)ccc1-c1cnn(-c2ccc(C(=O)N3CCN(C)[C@@H](C)C3)cn2)c1O [Example 372, (S)-4-(1-(5-(3,4-dimethylpiperazine-1-carbonyl)pyridin-2-yl)-5-hydroxy-1H-pyrazol-4-yl)-3-methylbenzonitrile] | 832 nM |
| 7.19 | O=C(NCc1ccccc1)c1ccc(-n2ncc(-n3ccc(=O)cc3)c2O)nc1 [Example 191, N-benzyl-6-(5-hydroxy-4-(4-oxopyridin-1(4H)-yl)-1H-pyrazol-1-yl)nicotinamide] | 6760 nM |
| 7.26 | CN1CCC2(CCN(C(=O)c3ccc(-n4ncc(-c5ccc(C#N)cc5)c4O)nc3)C2)C1 (stereo not drawn) [Example 350, 4-(5-hydroxy-1-(5-(7-methyl-2,7-diazaspiro[4.4]nonane-2-carbonyl)pyridin-2-yl)-1H-pyrazol-4-yl)benzonitrile] | 3310 nM |
| 8.21 | CCN1CCN(C(=O)c2ccc(-n3ncc(-c4ccc(C#N)cc4C)c3O)nc2)CC1(C)C [Example 378, 4-(1-(5-(4-ethyl-3,3-dimethylpiperazine-1-carbonyl)pyridin-2-yl)-5-hydroxy-1H-pyrazol-4-yl)-3-methylbenzonitrile] | 1290 nM |
